The supplement of paper PMC10307832

Legend:
Assay in all cases: relative viability (nuclei count vs DMSO), 5 days (fraction); higher = more cells survive
[1] = compound: CN(C)C(=N)NC(=N)N [Metformin] + CC(=O)Nc1cccc(-n2c(=O)n(C3CC3)c(=O)c3c(Nc4ccc(I)cc4F)n(C)c(=O)c(C)c32)c1 [Trametinib] (partner 0.02 µM)
Procedure, shortened: (§1)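 Cells from lung cancer lines were seeded into 1536-well plates and, one day later, dosed by pin tool. Treatments were either a single drug or a fixed dose of an anchor drug with five library-drug doses (not always all listed) in √10 steps. After 5 days, nuclei were stained in a one-step fixation (final 0.05% Triton X-100, 1% formaldehyde, 1 ug/ml Hoechst) and counted on 4× images, and relative viability is the treated-to-vehicle nuclei ratio, as the median of duplicate plates.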

[2] = compound: CN(C)C(=N)NC(=N)N [Metformin] + CS(=O)(=O)N1CCN(Cc2cc3nc(-c4cccc5[nH]ncc45)nc(N4CCOCC4)c3s2)CC1 [Pictilisib] (partner 1 µM)
Procedure, shortened: as §1

[3] = compound: CN(C)C(=N)NC(=N)N [Metformin] + NC(=O)Nc1cc(-c2cccc(F)c2)sc1C(=O)N[C@H]1CCCNC1 [AZD7762] (partner 0.2 µM)
Procedure, shortened: as §1

[4] = compound: N#CC1(c2ccc(NC(=O)c3cccnc3NCc3ccncc3)cc2)CCCC1 [Apatinib] + N=C(N)NC(=N)NCCc1ccccc1 [Phenformin] (partner 250 µM)
Procedure, shortened: as §1

For NCI-H1755, the relative viability ([1]; first compound 10 µM) was 0.683, the relative viability ([1]; first compound 31.62 µM) was 0.626 and the relative viability ([1]; first compound 100 µM) was 0.656. The relative viability ([1]; first compound 316.23 µM) was 0.682, the relative viability ([1]; first compound 1000 µM) was 0.676 and the relative viability ([2]; first compound 10 µM) was 0.366. The relative viability ([2]; first compound 31.62 µM) was 0.402, the relative viability ([2]; first compound 100 µM) was 0.471 and the relative viability ([2]; first compound 316.23 µM) was 0.412. The relative viability ([2]; first compound 1000 µM) was 0.336, the relative viability ([3]; first compound 10 µM) was 0.361 and the relative viability ([3]; first compound 31.62 µM) was 0.379. For the same cell line, the relative viability ([3]; first compound 100 µM) was 0.408, the relative viability ([3]; first compound 316.23 µM) was 0.345 and the relative viability ([3]; first compound 1000 µM) was 0.408. It also gave a relative viability ([4]; first compound 0.08 µM) of 0.626, a relative viability ([4]; first compound 0.253 µM) of 0.611 and a relative viability ([4]; first compound 0.8 µM) of 0.628. The relative viability ([4]; first compound 2.53 µM) was 0.609 and the relative viability ([4]; first compound 8 µM) was 0.559.
NCI-H2405 showed a relative viability ([1]; first compound 31.62 µM) of 0.744, a relative viability ([1]; first compound 100 µM) of 0.635 and a relative viability ([1]; first compound 316.23 µM) of 0.688. It also gave a relative viability ([1]; first compound 1000 µM) of 0.555, a relative viability ([2]; first compound 10 µM) of 0.469 and a relative viability ([2]; first compound 31.62 µM) of 0.518. It also gave a relative viability ([2]; first compound 100 µM) of 0.322, a relative viability ([2]; first compound 316.23 µM) of 0.373 and a relative viability ([2]; first compound 1000 µM) of 0.389. For the same cell line, the relative viability ([3]; first compound 31.62 µM) was 0.866, the relative viability ([3]; first compound 100 µM) was 0.831 and the relative viability ([3]; first compound 316.23 µM) was 0.722. It also gave a relative viability ([3]; first compound 1000 µM) of 0.515, a relative viability ([4]; first compound 0.08 µM) of 0.392 and a relative viability ([4]; first compound 0.253 µM) of 0.392. For the same cell line, the relative viability ([4]; first compound 0.8 µM) was 0.394, the relative viability ([4]; first compound 2.53 µM) was 0.33 and the relative viability ([4]; first compound 8 µM) was 0.344.
NCI-H1993 gave a relative viability ([1]; first compound 10 µM) of 0.477, a relative viability ([1]; first compound 31.62 µM) of 0.634 and a relative viability ([1]; first compound 100 µM) of 0.497. For the same cell line, the relative viability ([1]; first compound 316.23 µM) was 0.425, the relative viability ([1]; first compound 1000 µM) was 0.611 and the relative viability ([2]; first compound 10 µM) was 0.672. The relative viability ([2]; first compound 31.62 µM) was 0.783, the relative viability ([2]; first compound 100 µM) was 0.778 and the relative viability ([2]; first compound 316.23 µM) was 0.699. It also gave a relative viability ([2]; first compound 1000 µM) of 0.747, a relative viability ([3]; first compound 10 µM) of 0.714 and a relative viability ([3]; first compound 31.62 µM) of 0.656. The relative viability ([3]; first compound 100 µM) was 0.744, the relative viability ([3]; first compound 316.23 µM) was 0.716 and the relative viability ([3]; first compound 1000 µM) was 0.9. The relative viability ([4]; first compound 0.08 µM) was 0.533, the relative viability ([4]; first compound 0.253 µM) was 0.555 and the relative viability ([4]; first compound 0.8 µM) was 0.528. For the same cell line, the relative viability ([4]; first compound 2.53 µM) was 0.485 and the relative viability ([4]; first compound 8 µM) was 0.567.
For NCI-H322M, the relative viability ([1]; first compound 10 µM) was 0.518, the relative viability ([1]; first compound 31.62 µM) was 0.487 and the relative viability ([1]; first compound 100 µM) was 0.506. For the same cell line, the relative viability ([1]; first compound 316.23 µM) was 0.561, the relative viability ([1]; first compound 1000 µM) was 0.529 and the relative viability ([2]; first compound 10 µM) was 0.471. The relative viability ([2]; first compound 31.62 µM) was 0.52, the relative viability ([2]; first compound 100 µM) was 0.491 and the relative viability ([2]; first compound 316.23 µM) was 0.469. It also gave a relative viability ([2]; first compound 1000 µM) of 0.43, a relative viability ([3]; first compound 10 µM) of 0.569 and a relative viability ([3]; first compound 31.62 µM) of 0.641. It also gave a relative viability ([3]; first compound 100 µM) of 0.649, a relative viability ([3]; first compound 316.23 µM) of 0.464 and a relative viability ([3]; first compound 1000 µM) of 0.566. For the same cell line, the relative viability ([4]; first compound 0.08 µM) was 0.831, the relative viability ([4]; first compound 0.253 µM) was 0.76 and the relative viability ([4]; first compound 0.8 µM) was 0.778. The relative viability ([4]; first compound 2.53 µM) was 0.814 and the relative viability ([4]; first compound 8 µM) was 0.784.
EMC-BAC-2 showed a relative viability ([1]; first compound 10 µM) of 0.751, a relative viability ([1]; first compound 31.62 µM) of 0.889 and a relative viability ([1]; first compound 316.23 µM) of 0.73. The relative viability ([1]; first compound 1000 µM) was 0.829, the relative viability ([2]; first compound 10 µM) was 0.475 and the relative viability ([2]; first compound 31.62 µM) was 0.536. The relative viability ([2]; first compound 100 µM) was 0.528, the relative viability ([2]; first compound 316.23 µM) was 0.523 and the relative viability ([2]; first compound 1000 µM) was 0.523. For the same cell line, the relative viability ([3]; first compound 10 µM) was 1.14, the relative viability ([3]; first compound 31.62 µM) was 1.26 and the relative viability ([3]; first compound 100 µM) was 1.17. For the same cell line, the relative viability ([3]; first compound 316.23 µM) was 1.22, the relative viability ([3]; first compound 1000 µM) was 1 and the relative viability ([4]; first compound 0.08 µM) was 0.578. For the same cell line, the relative viability ([4]; first compound 0.253 µM) was 0.568, the relative viability ([4]; first compound 0.8 µM) was 0.463 and the relative viability ([4]; first compound 2.53 µM) was 0.383. The relative viability ([4]; first compound 8 µM) was 0.39.
PC-14 gave a relative viability ([1]; first compound 10 µM) of 0.746, a relative viability ([1]; first compound 31.62 µM) of 0.666 and a relative viability ([1]; first compound 100 µM) of 0.767. The relative viability ([1]; first compound 316.23 µM) was 0.686, the relative viability ([1]; first compound 1000 µM) was 0.575 and the relative viability ([2]; first compound 10 µM) was 0.577. It also gave a relative viability ([2]; first compound 31.62 µM) of 0.811, a relative viability ([2]; first compound 100 µM) of 0.654 and a relative viability ([2]; first compound 316.23 µM) of 0.734. For the same cell line, the relative viability ([2]; first compound 1000 µM) was 0.776, the relative viability ([3]; first compound 10 µM) was 0.31 and the relative viability ([3]; first compound 31.62 µM) was 0.343. It also gave a relative viability ([3]; first compound 100 µM) of 0.383, a relative viability ([3]; first compound 316.23 µM) of 0.304 and a relative viability ([3]; first compound 1000 µM) of 0.392. For the same cell line, the relative viability ([4]; first compound 0.08 µM) was 0.445, the relative viability ([4]; first compound 0.253 µM) was 0.793 and the relative viability ([4]; first compound 2.53 µM) was 0.476. It also gave a relative viability ([4]; first compound 8 µM) of 0.446.
Cell Line RERF-LC-KJ has a relative viability ([1]; first compound 10 µM) of 0.774, a relative viability ([1]; first compound 31.62 µM) of 0.794 and a relative viability ([1]; first compound 100 µM) of 0.775. For the same cell line, the relative viability ([1]; first compound 316.23 µM) was 0.676, the relative viability ([1]; first compound 1000 µM) was 0.707 and the relative viability ([2]; first compound 10 µM) was 0.57. The relative viability ([2]; first compound 31.62 µM) was 0.55, the relative viability ([2]; first compound 100 µM) was 0.53 and the relative viability ([2]; first compound 316.23 µM) was 0.402. For the same cell line, the relative viability ([2]; first compound 1000 µM) was 0.614, the relative viability ([3]; first compound 10 µM) was 0.703 and the relative viability ([3]; first compound 31.62 µM) was 0.927. It also gave a relative viability ([3]; first compound 100 µM) of 0.572, a relative viability ([3]; first compound 316.23 µM) of 0.799 and a relative viability ([3]; first compound 1000 µM) of 1. It also gave a relative viability ([4]; first compound 0.08 µM) of 0.452, a relative viability ([4]; first compound 0.253 µM) of 0.403 and a relative viability ([4]; first compound 0.8 µM) of 0.401. For the same cell line, the relative viability ([4]; first compound 2.53 µM) was 0.427 and the relative viability ([4]; first compound 8 µM) was 0.454.
NCI-H2085 showed a relative viability ([1]; first compound 10 µM) of 0.541, a relative viability ([1]; first compound 31.62 µM) of 0.58 and a relative viability ([1]; first compound 100 µM) of 0.446. For the same cell line, the relative viability ([1]; first compound 316.23 µM) was 0.542, the relative viability ([1]; first compound 1000 µM) was 0.631 and the relative viability ([2]; first compound 10 µM) was 0.408. For the same cell line, the relative viability ([2]; first compound 31.62 µM) was 0.492, the relative viability ([2]; first compound 100 µM) was 0.472 and the relative viability ([2]; first compound 316.23 µM) was 0.439. For the same cell line, the relative viability ([2]; first compound 1000 µM) was 0.545, the relative viability ([3]; first compound 10 µM) was 0.873 and the relative viability ([3]; first compound 31.62 µM) was 0.99. The relative viability ([3]; first compound 100 µM) was 0.979, the relative viability ([3]; first compound 316.23 µM) was 0.893 and the relative viability ([3]; first compound 1000 µM) was 0.989. The relative viability ([4]; first compound 0.08 µM) was 0.707, the relative viability ([4]; first compound 0.253 µM) was 0.715 and the relative viability ([4]; first compound 0.8 µM) was 0.752. The relative viability ([4]; first compound 2.53 µM) was 0.65 and the relative viability ([4]; first compound 8 µM) was 0.656.
LC-2-ad showed a relative viability ([1]; first compound 31.62 µM) of 0.81, a relative viability ([1]; first compound 100 µM) of 0.827 and a relative viability ([1]; first compound 316.23 µM) of 0.81. The relative viability ([1]; first compound 1000 µM) was 0.857, the relative viability ([2]; first compound 31.62 µM) was 0.471 and the relative viability ([2]; first compound 100 µM) was 0.334. For the same cell line, the relative viability ([2]; first compound 316.23 µM) was 0.426, the relative viability ([2]; first compound 1000 µM) was 0.408 and the relative viability ([3]; first compound 31.62 µM) was 0.885. For the same cell line, the relative viability ([3]; first compound 100 µM) was 0.906, the relative viability ([3]; first compound 316.23 µM) was 0.811 and the relative viability ([3]; first compound 1000 µM) was 0.87. It also gave a relative viability ([4]; first compound 0.08 µM) of 0.539, a relative viability ([4]; first compound 0.253 µM) of 0.579 and a relative viability ([4]; first compound 0.8 µM) of 0.517. For the same cell line, the relative viability ([4]; first compound 2.53 µM) was 0.539 and the relative viability ([4]; first compound 8 µM) was 0.582.
